Experimental data as given in patent US12213973B2, “Bacterial nitric oxide synthase inhibitors” (Northwestern University, priority 2021, dated 2025).
pIC50, pKd, pKi: −log10 of the molar value. “Also recorded” adds a separate entry of the source.

Columns and labels:
[1] = system: MRSA in infected macrophage cells; assay: Macrophage MRSA killing assay; assay type: cell-based; conditions: for MRSA killing activity in infected macrophage cells: FIG. 5; for MRSA killing activity compared with QJ13: FIG. 5B
Protocol: Bone marrow was isolated, red blood cells lysed with ACK buffer (Gibco), and plated on non-tissue culture treated dishes (Fisher) in DMEM media (Hyclone) supplemented with 2 mM L-glutamine (Corning), 100 U/mL pen-strep (Hyclone), 10% fetal bovine serum (OmegaScientific), and 10% cell conditioned media from CMG14-12 cells as a source of CSF. Macrophages were isolated after 6 days of differentiation and stored frozen in liquid nitrogen. One day prior to assay, macrophages were thawed and plated in flat-bottomed 96-well culture plates (VWR) at 50-70,000 cells per well in antibiotic-free DMEM media supplemented with 10% fetal bovine serum and L-glutamine.
Bacteria and inhibitors or vehicle control were added to each well. The plate was spun down for 5 min, 1500 rpm, 25° C. to bring bacteria in contact with the macrophages. The plate was incubated for 1 h at 37° C. with 5% CO2. The plate was spun down for 5 min, 1500 rpm, 25° C. The supernatant was pipetted off and discarded. Cells were lysed with 2% Triton-X 100 for 15 min. MTT in LB (100 μL of 1 mg/mL) was added to each well and plates were incubated for 2 h at 37° C. MTT was solubilized in DMSO, and plates were read at 540 nm. Killing was normalized to untreated bacteria. Empty wells with known bacteria quantities were used as a positive control.

[2] = target: human endothelial NOS (heNOS) (Homo sapiens, UniProt P29474); assay: IC50 determination, heNOS; assay type: biochemical; conditions: for isoform selectivity heNOS/bNOS (in parentheses): ratio of IC50 heNOS to IC50 bNOS WT
Protocol: (§1) Enzyme activity for bsNOS and bsNOS I218V was measured using the bBidomain constructs, as described previously,^4,14 with some minor alterations. Reactions with bsNOS and bsNOS I218V were run for 8 min, whereas those with hiNOS and heNOS were run for 4 min, as this allowed for adequate signal before complete substrate depletion. hiNOS and heNOS reactions also had calmodulin added at 10× the protein concentration. Inhibitors were tested from 5 μM to 800 μM. IC50 values were calculated as previously described.^9

[3] = target: human inducible NOS (hiNOS) (Homo sapiens, UniProt P35228); assay: IC50 determination, hiNOS; assay type: biochemical; conditions: for isoform selectivity hiNOS/bNOS (in parentheses): ratio of IC50 hiNOS to IC50 bNOS WT
Protocol: as §1

[4] = target: T1, bNOS WT (bsNOS) (Bacillus subtilis, UniProt O34453); assay: Imidazole displacement assay (spectral binding, Ks), bNOS WT; design: made in house; host or cells: E. coli BL21 (DE3)
Protocol: (§2) The KS value for each ligand was then calculated from KS,app as previously described,^4,14 using the KD of imidazole to bsNOS, bsNOS I218V, hiNOS, and heNOS and normalized to L-Arg.
Target sequence in this assay (O34453 whole entry): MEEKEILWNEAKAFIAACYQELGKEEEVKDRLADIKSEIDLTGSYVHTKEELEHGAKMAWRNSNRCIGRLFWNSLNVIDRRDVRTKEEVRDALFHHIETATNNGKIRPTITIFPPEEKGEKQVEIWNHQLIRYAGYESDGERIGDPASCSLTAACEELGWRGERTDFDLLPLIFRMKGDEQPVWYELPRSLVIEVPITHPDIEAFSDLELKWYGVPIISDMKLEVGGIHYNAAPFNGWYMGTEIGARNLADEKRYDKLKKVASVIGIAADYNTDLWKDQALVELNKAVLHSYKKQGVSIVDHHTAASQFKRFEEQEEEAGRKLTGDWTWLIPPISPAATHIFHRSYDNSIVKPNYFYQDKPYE

[5] = target: T2, bNOS (I218V) (Bacillus subtilis, UniProt O34453, I218V); assay: Imidazole displacement assay (spectral binding, Ks), bNOS I218V mutant; design: made in house; host or cells: E. coli BL21 (DE3); conditions: for decrease in inhibitor specificity between wild type (WT) and the I218V mutant (increase in KS): KS I218V versus KS WT
Protocol: as §2
Target sequence in this assay (O34453 whole entry I218V): as the sequence (O34453 whole entry) above, with I218V counted along it

[6] = target: T1, bNOS WT (bsNOS); assay: IC50 determination with bBidomain construct, bNOS WT; assay type: biochemical; design: YKuN (fusion partner); made in house; host or cells: E. coli BL21 (DE3)
Protocol: as §1
Target sequence in this assay (O34453 other isoform, or with tags, fused parts or gaps): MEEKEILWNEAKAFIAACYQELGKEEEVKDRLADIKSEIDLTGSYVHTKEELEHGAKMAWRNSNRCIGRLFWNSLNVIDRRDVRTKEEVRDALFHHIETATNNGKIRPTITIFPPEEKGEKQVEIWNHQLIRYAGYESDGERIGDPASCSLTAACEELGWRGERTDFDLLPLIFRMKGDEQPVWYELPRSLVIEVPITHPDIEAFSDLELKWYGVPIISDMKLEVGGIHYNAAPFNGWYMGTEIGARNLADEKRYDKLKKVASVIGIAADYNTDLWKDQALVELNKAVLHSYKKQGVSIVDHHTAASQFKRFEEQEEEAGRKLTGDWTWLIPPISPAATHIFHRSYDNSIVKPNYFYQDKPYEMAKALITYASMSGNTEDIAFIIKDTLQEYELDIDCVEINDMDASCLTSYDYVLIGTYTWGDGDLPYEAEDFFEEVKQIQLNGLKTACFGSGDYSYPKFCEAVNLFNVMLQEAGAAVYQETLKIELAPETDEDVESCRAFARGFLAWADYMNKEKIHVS

[7] = target: T2, bNOS (I218V); assay: IC50 determination with bBidomain construct, bNOS I218V; assay type: biochemical; design: YKuN (fusion partner); made in house; host or cells: E. coli BL21 (DE3)
Protocol: as §1
Target sequence in this assay (O34453 other isoform, or with tags, fused parts or gaps I218V): as the sequence (O34453 other isoform, or with tags, fused parts or gaps) above, with I218V counted along it

[8] = target: T3, human nNOS (hnNOS) (Homo sapiens, UniProt P29475); assay: Hemoglobin NO capture assay, hnNOS; assay type: biochemical; conditions: from IC50 by Cheng-Prusoff, 10 μM L-Arg
T3 construct: made in house; host or cells: Escherichia coli
Protocol: (§3) The NOS inhibitory activity of the compounds was measured by the hemoglobin (Hb) NO capture assay following a protocol described previously.^1-2 The production of NO was monitored by a rapid oxidation of oxyhemoglobin (oxyHb) to methemoglobin (metHb) by NO.^1 Purified recombinant NOSs, human nNOS (hnNOS), and human eNOS (heNOS),^3 are used in all activity assays. They were expressed in Escherichia coli and purified as previously reported. In brief, the assay was performed in 100 mM HEPES (4-(2-hydroxyethyl)-1-piperazine-ethanesulfonic acid) buffer with 10% glycerol (pH 7.4-7.5) at 37° C. in the presence of 10 μM L-Arg, 10 μM H4B, 100 μM NADPH, 0.83 mM CaCl2), 320 units/mL calmodulin, and 3 μM human oxyhemoglobin. A concentration of L-Arg of 10 μM was used as it is sufficient not to cause NOS uncoupling and is close to the Km values of all three NOS isoforms where competitive inhibitors can be detected effectively. The assay was performed in 96-well plates using a Biotek Gen5 microplate reader. The NOS enzymes and hemoglobin were dispensed automatically by the plate reader. NO production was kinetically monitored at 401 nm for 6 min. The inhibition constants (Ki) for all NOSs were calculated from the IC50 values of the dose-response curves using the Cheng-Prusoff equation,^4
(§4) [formula] where Km is the Michaelis constant. […] The calculated standard deviations from dose-response curves of the assays were less than 10% with all NOSs.

[9] = target: T4, human eNOS (heNOS) (Homo sapiens, UniProt P29474); assay: Hemoglobin NO capture assay, heNOS; assay type: biochemical; conditions: for pKi: from IC50 by Cheng-Prusoff, 10 μM L-Arg; for eNOS/nNOS selectivity: ratio of Ki heNOS to Ki hnNOS
T4 construct: made in house; host or cells: Escherichia coli
Protocol: as §3, §4

[10] = target: hiNOS (Homo sapiens, UniProt P35228); assay: Griess assay IC50, hiNOS; assay type: biochemical; conditions: IC50 value from Griess assay

For `COC(=O)[C@@H](N)CCCNC(=N)N[N+](=O)[O-]` [L-NAME, reference compound], the “MRSA killing activity in infected macrophage cells” value [1] was “no effect”.
For `Nc1cccc(CCc2cccc(OCc3ccc4ccc(N)nc4c3)c2)n1` [Compound 3, 7-((3-(2-(6-aminopyridin-2-yl)ethyl)phenoxy)methyl)quinolin-2-amine], the pIC50 [2] was under 3.30, the pIC50 [3] was 3.36 and the “isoform selectivity hiNOS/bNOS (in parentheses)” value (“isoform selectivity hiNOS/bNOS” below) [3] was 19. For the same molecule, the pKd [4] was 4.52, the pKd [5] was 4.63 and the pIC50 [6] was 4.64. It also gave a pIC50 [7] of 4.51.
In the case of `Nc1cccc(CNCCOc2cccc(OCc3ccc4ccc(N)nc4c3)c2)n1` [Compound 9, 7-((3-(2-(((6-aminopyridin-2-yl)methyl)amino)ethoxy)phenoxy)methyl)quinolin-2-amine], the pIC50 [2] was 3.31, the “isoform selectivity heNOS/bNOS (in parentheses)” value (from here on “isoform selectivity heNOS/bNOS”) [2] was 19 and the pIC50 [3] was 3.46. For the same molecule, the “isoform selectivity hiNOS/bNOS” value [3] was 13, the “MRSA killing activity in infected macrophage cells” value [1] was “exhibited killing activity” and the “MRSA killing activity compared with QJ13” value [1] was “superior MRSA killing activity”. For the same molecule, the MRSA killing ([1]; at ~50 μM concentration) was “about 50%”, the pKd [4] was 5.65 and the pKd [5] was 4.61. For the same molecule, the “decrease in inhibitor specificity between wild type (WT) and the I218V mutant (increase in KS)” value [5] was 11 fold, the pIC50 [6] was 4.58 and the pIC50 [7] was 3.64.
With `Nc1cccc(CNCCOc2cccc(OCc3cccc(N)n3)c2)n1` [PW-III-25] the pKi [8] was 5.48, the pKi [9] was 3.47 and the eNOS/nNOS selectivity [9] was 102.
In the case of `Nc1ccc2ccc(COc3cccc(CNCc4ccccn4)c3)cc2n1` [Compound 4, 7-((3-(((pyridin-2-ylmethyl)amino)methyl)phenoxy)methyl)quinolin-2-amine], the pIC50 [2] was 3.32, the “isoform selectivity heNOS/bNOS” value [2] was 12 and the pIC50 [3] was 3.84. For the same molecule, the “isoform selectivity hiNOS/bNOS” value [3] was 4, the pKd [4] was 4.49 and the pKd [5] was 4.23. It also gave a pIC50 [6] of 4.40 and a pIC50 [7] of 4.07.
In the case of `Nc1cccc(CCCCNCc2cccc(OCc3ccc4ccc(N)nc4c3)c2)n1` [Compound 8, 7-((3-(((4-(6-aminopyridin-2-yl)butyl)amino)methyl)phenoxy)methyl)quinolin-2-amine], the pIC50 [2] was 3.90, the “isoform selectivity heNOS/bNOS” value [2] was 21 and the pIC50 [3] was 4.62. The “isoform selectivity hiNOS/bNOS” value [3] was 4, the pKd [4] was 5.20 and the pKd [5] was 5.20. For the same molecule, the pIC50 [6] was 5.21 and the pIC50 [7] was 5.04.
For `Nc1cccc(CNCc2cccc(OCc3ccc4ccc(N)nc4c3)c2)n1` [Compound 5, 7-((3-((((6-aminopyridin-2-yl)methyl)amino)methyl)phenoxy)methyl)quinolin-2-amine], the pIC50 [2] was 3.51, the “isoform selectivity heNOS/bNOS” value [2] was 11 and the pIC50 [3] was 3.50. The “isoform selectivity hiNOS/bNOS” value [3] was 11, the “MRSA killing activity in infected macrophage cells” value [1] was “exhibited killing activity; also recorded: showed efficacy only at higher concentrations” and the “MRSA killing activity compared with QJ13” value [1] was “superior killing activity”. The pKd [4] was 5.64, the pKd [5] was 4.40 and the “decrease in inhibitor specificity between wild type (WT) and the I218V mutant (increase in KS)” value [5] was 17 fold. For the same molecule, the pIC50 [6] was 4.55 and the pIC50 [7] was 3.94.
In the case of `Nc1ccc2ccc(COc3cccc(CNCc4ccccn4)c3)cc2n1` [PW-I-101], the pKi [8] was 7.66, the pKi [9] was 4.70 and the eNOS/nNOS selectivity [9] was 900. It also gave a pIC50 [10] of 3.84.
In the case of `Nc1cccc(CCCCNCc2cccc(OCc3ccc4ccc(N)nc4c3)c2)n1` [PW-I-103], the pKi [8] was 7.42, the pKi [9] was 5.71 and the eNOS/nNOS selectivity [9] was 51. For the same molecule, the pIC50 [10] was 4.62.
In the case of `Nc1ccc2ccc(COc3cccc(CNCCc4ccccn4)c3)cc2n1` [Compound 6, 7-((3-(((2-(pyridin-2-yl)ethyl)amino)methyl)phenoxy)methyl)quinolin-2-amine], the pIC50 [3] was 3.40, the “isoform selectivity hiNOS/bNOS” value [3] was 18 and the pKd [4] was 4.65. For the same molecule, the pKd [5] was 4.50, the pIC50 [6] was 4.67 and the pIC50 [7] was 4.20.
